Measured values as given in US20190216824A1, “Particles, Compositions and Methods for Ophthalmic and/or Other Applications” (priority 2016, published 2019).

Key:
[1] = XRPD crystal form before and after milling (Example 8); assay type: physicochemical; conditions: input vs milled with F127
Excerpt: Particles were isolated by centrifugation, then resuspended in H2O and then recentrifuged. The wet sample was resuspended in H2O and deposited thinly and evenly onto a flat zero background sample holder (Rigaku 906165). The sample was allowed to air dry.
Milligram amounts were packed as an evenly thin layer of solid onto a zero background sample holder (Rigaku 906165).
X-ray Powder Diffraction (XRPD) patterns were obtained using a Rigaku MiniFlex 600 benchtop x-ray diffractometer equipped with a Cu X-ray tube (Cu/Kα=1.54059 Å), a six-position sample changer and a D/teX Ultra detector. […] Diffraction patterns were viewed and analyzed using PDXL analysis software provided by the instrument manufacturer. A reference standard silicon powder (NIST Standard Reference Material 640d) generated a peak at 28.43° and 28.45° two theta when samples were prepared as suspension in H2O (to simulate Procedure A) and Procedure B, respectively.
All input crystalline forms were arbitrarily designated as “A” forms. New forms that emerged after milling, if any, were sequentially designated as “B”, “C”, etc.

[2] = DLS size and PDI of cortisone and hydrocortisone milled with F127 (Example 7); assay type: physicochemical; conditions: suspension milled with 5% F127 in PBS pH 7.1, 25 hours
Procedure: A milling procedure was employed in which aqueous dispersions containing coarse compound particles were individually milled with F127 at near-neutral pH buffer using a grinding medium. Briefly, a slurry containing 5% of compound and 5% F127 in PBS (0.0067 M PO43), pH 7.1 was added to an equal bulk volume of 1-mm ceria-stabilized zirconium oxide beads in a glass vial (e.g., 2 mL of slurry per 2 mL of beads). A magnetic stir bar was used to agitate the beads, stirring at approximately 500 rpm at ambient conditions for 25 hours.
The milled suspensions were subjected to dynamic light scattering (DLS) measurements to determine particle size and polydispersity index (PDI, a measure of the width of the particle size distribution). The samples for DLS measurements were buffered with HyClone™ PBS (phosphate-buffered saline) to produce isotonic samples that have a physiologically relevant pH.

| SMILES | Crystal form change after milling of "A" forms? [1] | PDI [2] | Size (Z-average) [2] [nm] |
| --- | --- | --- | --- |
| C[C@]12CCC(=O)C=C1CC[C@@H]1[C@@H]2C(=O)C[C@@]2(C)[C@H]1CC[C@]2(O)C(=O)CO [Compound 1, Cortisone] | No | 0.074 | 225 |
| C[C@]12CCC(=O)C=C1CC[C@@H]1[C@@H]2[C@@H](O)C[C@@]2(C)[C@H]1CC[C@]2(O)C(=O)CO [Compound 2, hydrocortisone] | No | 0.258 | 357 |
